Measured values reported in PMC7180617, “Biological Evaluation of 3-Benzylidenechromanones and Their Spiropyrazolines-Based Analogues” (Molecules, 2020).
Several values for one entry are separate records, joined by “and”; a condition that tells them apart may be missing. Equal values may be shown once.

Experiments:
plasmid DNA (pcDNAHisC) = experiment: Digestion of plasmid DNA with BamHI restriction nuclease (DNA-cleavage protection); format: biochemical; conditions: 10 µM, overnight 37 °C, then BamHI 3 h, agarose gel
Procedure: This cytotoxicity was tested with regard to its effect on the cell cycle and the ability to modify DNA. In addition to the compounds shown in Table 4, two highly-cytotoxic compounds (11 and 12) were also tested. Their structure and biological activity were described in a previous article. […] To test this hypothesis, plasmid DNA was incubated with the test compounds and subsequently digested with BamH1 endonuclease. […] This conclusion is supported by the presence of the circular form of plasmid DNA after digestion with BamH1.
First, 0.5 µg of plasmid DNA (pcDNAHisC, total length 5.5 kbp) containing a unique BamHI restriction site was dissolved in a 1x BamHI reaction buffer and incubated overnight at 37 °C with the test compounds or daunorubicin, which was used as a positive control. The concentration of the test compounds and daunorubicin in the samples was 10 µM. The final concentration of DMSO in all samples was 10%. In the next step, the reaction mixtures were digested with BamHI restriction endonuclease (2 U/µL) for 3 h at 37 °C. Total reaction volume was 10 µL. Products of the reaction were separated in the 1% agarose gel in TBE buffer. The gel was stained with ethidium bromide and DNA fragments were visualized under a UV lamp (GBox, Syngene, Frederick, MD, USA).

WM-115 cells = tested on: WM-115 cells; set-up: method as in PMID 30513785; conditions: MTT; cited from earlier work
HL-60 cells [1] = experiment: Cell cycle analysis by flow cytometry (propidium iodide); format: cell-based, human; conditions: for cell cycle, G1, mean / cell cycle, G2/M, mean / cell cycle, S, mean: mean of n=2; for cell cycle distribution, G1 / cell cycle distribution, G2 / cell cycle distribution, G2/M: HL-60, 20 h, mean ± SD, n = 2
Procedure: The next stage examined the effects of the selected compounds on cell cycle progression in HL-60 leukemia cells. […] One million HL-60 (subline CCL 240; cell type: promyeloblast) cells in 3 mL of RPMI 1640 supplemented with 20% FBS were seeded on 6-well plate. […] Fixed cells were stored in −20 °C for 2–3 days. Before analysis, cells were centrifuged (10 min, 1500 rpm, 4 °C) and washed twice with cold PBS. After the second wash, the cells were suspended in 1mL of PBS containing 100 μg of RNase A and incubated in 37 °C for 10 min. Next, 5 μL of solution of propidium iodide (1 mg/mL) was added to each sample and incubated in dark for 30 min at RT. Stained cells were analyzed by flow cytometry (FACS Calibur, BD Biosciences, San Jose, CA, USA). Data from 10,000 gated cells were collected using CellQuestPro software (Ver 6.0, Becton Dickinson) and cell cycle analysis was performed with ModFit LT software (Ver 3.2, Verity Software House, Topsham, ME, USA).

[2] = Lipophilicity (logP) by RP-TLC; conditions: RP-18 F254S TLC plates
Excerpt: Lipophilicity is one of the most important physicochemical properties in pharmaceutical research. It can be considered a key determinant of the pharmacokinetic properties of a drug. It is commonly measured by the partition coefficient between water and n-octanol, being expressed as logP [14]. […] Knowledge of the partition coefficient is valuable: it is frequently used in structure–activity relationship (SAR) and quantitative structure–activity relationship (QSAR) studies. The experimental lipophilicity of the synthesized compounds, viz. benzylideneflavanones, benzylidenechromanones and spiropyrazolines, was determined using RP-TLC. […] It is important to examine the relationship between structure of the compound and its lipophilicity and cytotoxicity.
The RP-TLC experiments were performed on TLC plates (5 × 10 cm) RP-18 F254S (Merck, Darmstadt, Germany). The synthesized compounds were dissolved in N,N-dimethylformamide DMF (2 mg/mL). […] A DMF-water solvent system was used as mobile phase. […] All experiments were performed at room temperature. The logP parameter was calculated using the equation from the calibration curve.

NALM-6 cells = tested on: NALM-6 cells; set-up: method as in PMID 30513785; conditions: MTT; cited from earlier work
HL-60 cells [3] = tested on: HL-60 cells; set-up: method as in PMID 30513785; conditions: MTT; cited from earlier work
[4] = Figure S3, HL-60, 0.5 × IC50 (µM: quercetin 29, 1 1.5, 7 18, 10 4.7, 11 4.5, 12 6)
[5] = Figure S3, HL-60, 0.5 × IC50, each of two repetitions
[6] = Figure S3, HL-60, 1 × IC50 (µM: quercetin 58, 1 3, 7 35, 10 9.4, 11 9, 12 12)
[7] = Figure S3, HL-60, 1 × IC50, each of two repetitions
[8] = 0.5 × IC50 (µM: quercetin 29, 2 1.5, 7 18, 12 6, 11 4.5, 10 4.7)
[9] = 1 × IC50 (µM: quercetin 58, 2 3, 7 35, 12 12, 11 9, 10 9.4)

Question: Which “inhibition of BamHI digestion of plasmid DNA (in words)” value (plasmid DNA (pcDNAHisC)) does the source give for `COc1cccc2c1C(=O)c1c(O)c3c(c(O)c1C2=O)C[C@@](O)(C(C)=O)C[C@@H]3O[C@H]1C[C@H](N)[C@H](O)[C@H](C)O1` [daunorubicin] here?
Answer: prevented linearization of DNA

Question: What does the source list for `CCN(CC)c1ccc(/C=C2\COc3ccccc3C2=O)cc1` [Compound 12, (E)-3-(4-N,N-diethylaminobenzylidene)chroman-4-one]?
Answer: IC50 (WM-115 cells): 18.1 ± 3.14 µM; cell cycle, G1, mean (HL-60 cells [1]; [4]): 19,26%; cell cycle, G2/M, mean (HL-60 cells [1]; [4]): 52,38%; cell cycle, S, mean (HL-60 cells [1]; [4]): 28,37%; cell cycle, G1, single repetitions (HL-60 cells [1]; [5]): 17,44% and 21,08%; cell cycle, G2/M, single repetitions (HL-60 cells [1]; [5]): 56,79% and 47,96%; cell cycle, S, single repetitions (HL-60 cells [1]; [5]): 22,13% and 34,60%; cell cycle, G1, mean (HL-60 cells [1]; Figure S3, HL-60, 1 × IC50 (µM in parenthesis: quercetin 58, 1 3, 7 35, 10 9.4, 11 9, 12 12)): 19,53%; cell cycle, G2/M, mean (HL-60 cells [1]; [6]): 52,44%; cell cycle, S, mean (HL-60 cells [1]; [6]): 28,03%; cell cycle, G2/M, single repetitions (HL-60 cells [1]; [7]): 44,70% and 60,18%; cell cycle, S, single repetitions (HL-60 cells [1]; [7]): 27,06% and 29,00%; cell cycle distribution, G1 (HL-60 cells [1]; [8]): 19.3 ± 2.6%; cell cycle distribution, G2 (HL-60 cells [1]; [8]): 28.4 ± 8.8%; cell cycle distribution, G2/M (HL-60 cells [1]; [8]): 52.4 ± 6.2%; cell cycle distribution, G1 (HL-60 cells [1]; [9]): 19.5 ± 12.3%; cell cycle distribution, G2 (HL-60 cells [1]; [9]): 28.0 ± 1.4%; cell cycle distribution, G2/M (HL-60 cells [1]; [9]): 52.4 ± 10.9%; cells arrested in G2/M phase (HL-60 cells [1]; HL-60, concentrations of IC50 and 0.5 × IC50): 50–60%; chromatographic logP [2]: 3.43; IC50 (NALM-6 cells): 8.69 ± 0.4 µM; IC50 (HL-60 cells [3]): 11.8 ± 1.97 µM
